In patent US7846934B2, “Furo[3,2-B] pyrrol-3-one derivatives and their use as cysteinyl proteinase inhibitors” (Amura Therapeutics Limited, priority 2007, dated 2010):

Assays:
[1] = Liver microsomal incubations (HLM stability); settings: human liver microsomes, 25 μM
human osteoclasts [2] = test: Human osteoclast resorption assay; assay type: cell-based; settings: for inhibition at 1 µM: Homo sapiens, Osteoclast, read-out: Cell-based % Inh. @ 1 μM Human
Description: Bone resorption was studied using a model where human osteoclast precursor cells were cultured on bovine bone slices for 9 days and allowed to differentiate into bone-resorbing osteoclasts. The formed mature osteoclasts were then allowed to resorb bone. The assay was performed by Pharmatest Services Ltd, Itäinen Pitkakatu 4C, Turku, Finland. After the culture period, bone collagen degradation products were quantified from the culture medium as an index of bone resorption. Inhibitor compounds were added into the cell cultures after the differentiation period and their effects on the resorbing activity of mature osteoclasts were determined. The studies included a baseline group without added compounds and a positive control group where a potent cathepsin K inhibitor E-64 was added.
Human peripheral blood monocytes were suspended to culture medium and allowed to attach to bovine bone slices. The bone slices were transferred into 96-well tissue culture plates containing culture medium with appropriate amounts of important growth factors favouring osteoclast differentiation, including M-CSF, RANK-ligand and TGF-β. The cells were incubated in a CO2 incubator in humidified atmosphere of 95% air and 5% carbon dioxide at 37° C. At day 7 when osteoclast differentiation was complete, the culture medium was replaced with culture medium containing conditions favouring osteoclast activity. The cell culture was continued for an additional 2 days, during which the formed mature osteoclasts were allowed to resorb bone in the presence of vehicle, control inhibitor (E64) or test compounds. At the end of the culture, bone collagen degradation products released into the culture medium were determined using a commercially available ELISA method (CrossLaps® for culture, Nordic Bioscience, Herlev, Denmark) as an index of bone resorption (see Bagger, Y. Z. et al, J. Bone. Miner. Res. 14 (suppl. 1), S370).

rat osteoclasts = test: Rat osteoclast resorption assay; settings: read-out: Cell-based % Inh. @ 1 μM Rat
Description: Bone resorption was studied using a model where mature osteoclasts derived from rat bone were cultured on bovine bone slices for 3 days and allowed to resorb bone in the presence of inhibitor, positive control (E-64) or vehicle. More specifically, tibia, femori and humeri were removed from 1 day old rat pups. The endosteal surfaces of the bones were scraped with a scapelto release osteoclasts into the culture medium and the osteoclasts were allowed to attach to bovine bone slices. After the culture period, bone collagen degradation products were quantified from the culture medium as an index of bone resorption. The assay was performed by Pharmatest Services Ltd, Itäinen Pitkakatu 4C, Turku, Finland.

[3] = Plasma incubations (human plasma stability); settings: 37° C., 25 μM
Description: Human and rat plasma were purchased from Innovative Research Inc. (Southfield. Mich., USA). […] Aliquots were removed at 2 and 60 minutes and quenched with an equal volume of cold acetonitrile. After mixing vigorously, the precipitated protein matter was removed by filtration (Multiscreen Solvinert filter plates, Millipore, Bedford, Mass., USA) and the filtrate analysed by reverse phase HPLC with mass spectrometric detection, using single ion monitoring of the [M+H]^+ species. Metabolic turnover was determined by comparison of peak areas from the ion chromatograms of the parent compound at 2 and 60 minutes and expressed as percent remaining at 1 hour.

[4] = molecular target: T1, Human recombinant cathepsin K (Homo sapiens, UniProt P43235); test: In vitro cathepsin Ki inhibition measurements; assay type: biochemical; settings: Table 1; read-out: In vitro Ki (nM) vs Cath K
T1 construct: B. Turk, Josef Stefan Institute, Ljubljana, Slovenia (academic supplier)
T1 sequence (P43235 115-329): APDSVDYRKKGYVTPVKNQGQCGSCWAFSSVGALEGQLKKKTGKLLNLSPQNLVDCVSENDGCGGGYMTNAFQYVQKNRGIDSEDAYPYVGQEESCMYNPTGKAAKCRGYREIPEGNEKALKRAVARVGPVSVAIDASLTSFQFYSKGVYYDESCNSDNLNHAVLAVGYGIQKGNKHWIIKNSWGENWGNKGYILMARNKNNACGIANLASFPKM
Description: Stock solutions of substrate or inhibitor were made up to 10 mM in 100% dimethylsulfoxide (DMSO) (Rathburns, Glasgow, U.K.) and diluted as appropriately required. In all cases the DMSO concentration in the assays was maintained at less than 1% (vol./vol.). The equilibrium inhibition constants (Ki^SS) for each compound were measured under steady-state conditions monitoring enzyme activity as a function of inhibitor concentration. The values were calculated on the assumption of pure competitive behaviour (Comish-Bowden, A. Fundamentals of enzyme kinetics Portland Press; 1995, 93-128).
The apparent inhibition constant (Ki) for each compound was determined on the basis that inhibition was reversible and occurred by a pure-competitive mechanism. The Ki values were calculated, from the dependence of enzyme activity as a function of inhibitor concentration, by direct regression analysis (Prism v 3.02) using Equation 2 (Cornish-Bowden, A., 1995).
In situations where the apparent dissociation constant (Ki^app) approached the enzyme concentrations, the Ki^app values were calculated using a quadratic solution in the form described by Equation 3 (Morrison, J. F. Trends Biochem. Sci., 7, 102-105, 1982; Morrison, J. F. Biochim. Biophys. Acta, 185 269-286, 1969; Stone, S. R. and Hofsteenge, J. Biochemistry, 25, 4622-4628, 1986).
Curves were fitted by non-linear regression analysis (Prism) using a fixed value for the enzyme concentration. Equation 4 was used to account for the substrate kinetics, where ‘Ki’ is the inhibition constant, ‘[S0]’ is the initial substrate concentration and ‘KM^app’ is the apparent macroscopic binding (Michaelis) constant for the substrate (Morrison, 1982).

[5] = LogD determinations (shake-flask, octanol/PBS); settings: 1-octanol/phosphate buffered saline, pH 7.4
Description: LogD(PBS) determinations were performed in 96 well microtitre plates using a miniaturised “shake-flask” method. […] The plates were then capped and mixed vigorously for 1 hour on a microtitre plate shaker, after which they were left to stand, allowing the PBS and octanol phases to separate. The PBS layer was analysed by reverse phase HPLC with mass spectrometric detection, using single ion monitoring of the [M+H]^+ species.
[formula] Where AUCstd and AUCpbs are the peak areas from the standard and test ion chromatograms respectively.

human osteoclasts [6] = settings: literature value; cited from earlier work

HLM % rem. @ 1 hr [1] [%] | Human Plasma Stability % rem. @ 1 H [3] [%] | Ki [4] [nM] | logD at 1 h [5] | LogD pH 7.4 | Compound | inhibition at 1 µM (human osteoclasts [2]) [%] | inhibition at 1 µM (rat osteoclasts) [%] | Cell-based % Inh. @ 1 μM Human (human osteoclasts [2]) [%] | Cell-based % Inh. @ 1 μM Human (Lit.) (human osteoclasts [6])
95 | 95 | – | – | – | CC(C)C[C@H](NC(=O)c1ccc(N2CCN(C)CC2)cc1)C(=O)N1CC[C@H]2OCC(=O)[C@H]21 [Example 1, 4-(4-methylpiperazin-1-yl)-N-((S)-4-methyl-1-oxo-1-((3aS,6aR)-3-oxodihydro-2H-furo[3,2-b]pyrrol-4(5H, 6H, 6aH)-yl)pentan-2-yl)benzamide, reference compound] | 55 | 43 | – | –
91 | 99 | 14 | 1.21 | – | CN1CCN(c2ccc(C(=O)N[C@H](C(=O)N3CC[C@H]4OCC(=O)[C@H]43)C3CCCCC3)cc2)CC1 [Example 2, N-((S)-1-cyclohexyl-2-oxo-2-((3aS,6aR)-3-oxodihydro-2H-furo[3,2-b]pyrrol-4(5H,6H,6aH)-yl)ethyl)-4-(4-methylpiperazin-1-yl)benzamide] | 74 to 76 | 0 | 76 | –
91 | 97 | 2 | 0.78 | – | CN1CCN(c2ccc(C(=O)N[C@H](C(=O)N3CC[C@H]4OCC(=O)[C@H]43)C3CCCC3)cc2)CC1 [Example 3, N-((S)-1-cyclopentyl-2-oxo-2-((3aS,6aR)-3-oxodihydro-2H-furo[3,2-b]pyrrol-4(5H,6H,6aH)-yl)ethyl)-4-(4-methylpiperazin-1-yl)benzamide] | 74 to 76 | 60 | 74 | –
70 | 75 | – | – | – | CC(C)C[C@H](NC(=O)c1ccc(C(C)(C)C)cc1)C(=O)N1CC[C@H]2OCC(=O)[C@H]21 [reference compound] | – | – | – | Lit. 60%
– | – | 7 | – | 1.55 | N-((S)-1-cyclopentyl-2-oxo-2-((3aS,6aR)-3-oxodihydro-2H-furo[3,2-b]pyrrol-4(5H,6H,6aH)-yl)ethyl)-4-(4-propylpiperazin-1-yl)benzamide [Example 17] | – | – | >80 | –
